Results on one compound are retold here after patent publication US6106866A, “In vivo agents comprising cationic drugs, peptides and metal chelators with acidic saccharides and glycosaminoglycans, giving improved site-selective localization, uptake mechanism, sensitivity and kinetic-spatial profiles, including tumor sites” (Access Pharmaceuticals, Inc., priority 1995, dated 2000).

One data set relates to parent MCF-7 cell line. Kind of data set: Clonigenic tumor-cell killing assay, parent MCF-7 (14C-glucose, Bactec, day 9). It is filed as cell-based. As to conditions: Homo sapiens, MCF7, 216 h. An excerpt: (§1) The paired-ion doxorubicin:dermatan sulfate (essentially purified dermatan sulfate, 435 Type, Opocrin) of Example 28 (=doxorubicin:DS), is compared to standard doxorubicin liquid (Adria Laboratories), for tumor-cell killing potency in a clonigenic assay, using the following human breast cancer cell lines: parent MCF-7 cell line and adriamycin/doxorubicin-resistant MCF-7 cell line. For each group, five serial dilutions of each formulation were mixed on day 0, with an appropriate number of cells, growth medium and ^14 C-labelled glucose, the mixture then injected into serum vials pre-gassed with 5% CO2, and the vials incubated at 37° C. (with cells continuously exposed to drug). […] Results are shown in Table 5 for the day of peak counts (day 9): […]

In data set [1] the test system is adriamycin/doxorubicin-resistant MCF-7 cell line. The data set can be described thus: Clonigenic tumor-cell killing assay, doxorubicin-resistant MCF-7 (14C-glucose, Bactec, day 9). It is filed as cell-based, human.
Source text: as §1

Data set [2] in a line: Acute in vivo toxicity of doxorubicin:dermatan sulfate vs standard doxorubicin (day of death). As to conditions: 22.5 mg/Kg i.v. On the set-up: species or system male Balb/c mice. An excerpt: The days of death are: doxorubicin:DS: modal day=6, mean=5.5±0.9 SE; standard doxorubicin: modal day=day 5, mean=4.8±0.5SE.
For data set [3] the following is noted: mouse, in vivo; cited from earlier work.
Another data set deals with AT-1 prostate carcinomas. Kind of data set: Acute in vivo tumor localization and tumor-cell internalization by fluorescence microscopy. On the set-up: species or system Copenhagen rats. The method, then:
FIG. 21A. Frozen 8-micron thick section of prostate adenocarcinoma (outer 2/3 of tumor of ca. 4 cm diameter), excised from its host rat (Copenhagen strain, syngeneic) 3 hours after intravenous injection of 5 mg/Kg doxorubicin:DS (doxorubicin in association with essentially purified dermatan sulfate, 435 Type, Opocrin) at a weight ratio of 60:40 (doxorubicin to dermatan sulfate), and fluorescence microscopy performed using a rhodamine-type filter to elicit direct fluorescence of the doxorubicin drug substance (see also Example 29). […] This is indicative of high tumor-cell internalization of the doxorubicin drug substance.
The paired-ion doxorubicin:dermatan sulfate (essentially purified dermatan sulfate, 435 Type, Opocrin) of Example 28 (=doxorubicin:DS) and standard doxorubicin liquid (Adria Laboratories) are injected at 5 mg/kg of doxorubicin i.v., into Copenhagen rats with AT-1 prostate carcinomas grown in a skin pouch (to mimic growth at deep organ sites). The rats are sacrificed at 3 hours after injection, the tumors and major organs removed, the cut tumors & organ pieces placed in OCT polymer and frozen at […], and cryostat sections cut at 8 um and coverslipped. Fluorescence microscopy is performed by exciting the sections using a rhodamine-type bandpass filter (at ca. 485 nm--in order to selectively excite doxorubicin) and assessing direct doxorubicin fluorescence (at an emission wavelength greater than 530 nm) to determine the following: […]

Entries after “also recorded” stand apart in the source; their conditions may differ.

By IC50 is commonly meant the concentration needed to halve the response being measured. In general, IC90 refers to the concentration needed for an effect of 90%. Take `COc1cccc2c1C(=O)c1c(O)c3c(c(O)c1C2=O)C[C@@](O)(C(=O)CO)C[C@@H]3O[C@H]1C[C@H](N)[C@H](O)[C@H](C)O1` [Standard doxorubicin]: in the data set with parent MCF-7 cell line, the IC50 stood at 20 nM and the IC90 amounted to 60 nM. For the same compound, the “ability to overcome resistance” value in data set [1] is listed as “unable to do so”. The compound further showed an IC50 in data set [1] (Homo sapiens, MCF7, 216 h, day 9) of 22300 nM. The IC90 result in data set [1] (day 9) is given as “not achieved”. Also, the “modal day of death” value in data set [2] stood at 5 days. In addition, the “mean day of death” value in data set [2] (± SE) turned out to be 4.8 ± 0.5 days. Moreover, in data set [3], the “reported LD90 in mice” value was 22.5 mg/kg. In the data set with AT-1 prostate carcinomas (5 mg/Kg i.v., 3 hours), the “direct drug fluorescence in tumor cells” value is given as “markedly lower fluorescence”; the “fluorescence of endothelium / microvessels” value was “general lack of fluorescence in and around the large tumor microvessel; also recorded: general lack of fluorescence in and around tumor microvessel (image center) and in tumor-cell nuclei”; the “fluorescence of tumor-cell nuclei” value is “no identifiable fluorescence in the tumor-cell nuclei”. The “Fluorescence near capillaries (scale of 0 to 4+)” value with AT-1 prostate carcinomas (2/3 of regions) is reported as 0. For the same compound, in the data set with AT-1 prostate carcinomas (Adriamycin PFS: most regions, doxorubicin:DS: ca. 8/10 of regions), the “Fluorescence away from capillaries (scale of 0 to 4+)” value was 0. Moreover, in the data set with AT-1 prostate carcinomas (rat, in vivo), the “Endothelial fluorescence (scale of 0 to 4+)” value is recorded as 0 and the “Endothelial nuclear fluorescence (scale of 0 to 4+)” value was 0.
